Earlier results, collected in patent US20230172880A1, “FAST-ACTING TOPICAL ANESTHETIC FORMULATIONS” (priority 2020, published 2023).

Conditions: administered directly into tissue

Structure (SMILES): CCN(CC)CC(=O)Nc1c(C)cccc1C [lidocaine]
- onset: less than 2 min
